Assay results from patent EP1200455B1, “ENZYME CATALYZED THERAPEUTIC ACTIVATION” (Celmed Oncology (USA), Inc., priority 1999, dated 2001).
pIC50: −log10 of the molar value.

Columns and labels:
HT1080 = assay: AlamarBlue cell proliferation (cytotoxicity) assay; type: cell-based; conditions: dose range 10^-3 to 10^-10 M
Method: (§1) Cells growing exponentially were transferred to 384-well flat bottom tissue culture plates. […] After 24 hours (day 0), 25 µL of complete medium containing the compounds over the dose range of 10^-3 to 10^-10 M were added in triplicate. Drug exposure time was 120 hours (day 5), after which growth inhibition was assayed. 5 µL of the redox indicator, alamarBlue, was added to each well (10% v/v).
(§2) Numbering in Tables 5 and 6 refer to the structures, shown infra. […] MCF7-TDX was derived from MCF7 breast tumor cells via selection in cell culture in the presence of Tomudex, a direct inhibitor of TS. […] Similarly, H630R10 is a 5FU (fluoropyrimidine) resistant colon cancer epithelial cell line derived from H630 colon cancer cells. […] HT1080, #12, is a fibrosarcoma tumor cell line that expresses high levels ofTS via a transgene introduced into HT1080 tumor cells. Normal cell lines used in these assays include CCD180co (normal colon epithelium) and Det551 (normal skin).

Normal Cells [1] = assay: AlamarBlue cell proliferation (cytotoxicity) assay, mean over normal cells; type: cell-based, human; conditions: mean of CCd18co and Det551 (µM)
Method: as §1, §2

Tumor Cells [2] = assay: AlamarBlue cell proliferation (cytotoxicity) assay, mean over tumor cells; type: cell-based; conditions: for mean IC30 over tumor cell lines: alamarBlue, mean of the MCF7TDX, H630R10 and HT1080 (µM); for activity (in words, summary of Tables 5 and 6): text comment on the cytotoxicity data
Method: as §1, §2

MCF7TDX = assay: AlamarBlue cell proliferation (cytotoxicity) assay; type: cell-based, human; conditions: 120 hours drug exposure, dose range 10^-3 to 10^-10 M
Method: as §1, §2

CCd18co [3] = assay: AlamarBlue cell proliferation (cytotoxicity) assay; type: cell-based, human; conditions: 120 hours drug exposure, normal colon epithelium cells
Method: as §1, §2

H630R10 [4] = assay: AlamarBlue cell proliferation (cytotoxicity) assay; type: cell-based, human; conditions: 120 hours drug exposure, dose range 10^-3 to 10^-10 M
Method: as §1, §2

[5] = test system: MCF7TDX (Tomudex resistant breast cancer cell line)
Method: (§5) 100 µM of BVdU was added to each dish and the cells continued to grow for 2 days at 37°C. After that, the medium was aspirated and the cells were washed twice with phosphate buffered saline (PBS). Then 1 ml of PBS per dish was added and the dishes were placed in a -80°C freezer. The cells were disrupted via freezing/thawing procedure, repeated twice. The cell debris in the resulting suspension were spun down (13,000 rpm,10 minutes) and the supernatant was deproteinized by passing though a Centrifugal Filter Device (Centrifree, 30,000 cut-off, Amicon) by centrifugation at 5,000 rpm for 30 minutes on Sorvall Super T21 centrifuge (Rotor SL-50-T, 1,912 g) at 20°C. The pass-through was concentrated to the volume of 100 µl, and injected onto an HPLC column (Adsorbosphere HS, C18, 5 µm, 4.6 mm x 150 mm, Alltech). The samples were analyzed using acetonitrile gradient in water containing trifluoroacetic acid. The peaks were detected at 300 mm the maximum of absorption of BVdU-derivatives, and the amounts of compounds were expressed as peak area at 300 nm. […]
(§6) The amounts of reference compounds BVdUMP or BVdU present in lysates call lines MCF7, MCF7TDX, and H630R10 each treated with BVdU, are expressed as an area of a corresponding HPLC peak at 300 nm. […]
(§7) Cells were incubated in complete media with 100 µm BVdU. Lysates were prepared and BVdUMP and BVdU levels were determined.

[6] = test system: H630R10 (5-FU resistant colon cancer cell line)
Method: as §5, §6, §7

[7] = test system: MCF7 (breast cancer cell line)
Method: as §5, §6, §7

Det551 [8] = assay: AlamarBlue cell proliferation (cytotoxicity) assay; type: cell-based, human; conditions: 120 hours drug exposure, normal skin cells
Method: as §1, §2

H630R10 [9] = assay: Crystal violet cell proliferation inhibition assay; type: cell-based, human; conditions: 72 hours incubation
Method: (§3) Compound concentrations from 1 µM to 3000 µM were tested.
as §2

[10] = test system: H630R10 (5-FU resistant colon cancer cell line); assay: Amount of nucleoside and monophosphate in cells (HPLC of lysates after BVdU treatment); conditions: 2 days treatment with 100 µm BVdU
Method: as §5, §6, §7

Det551 [11] = assay: Crystal violet cell proliferation inhibition assay; type: cell-based; conditions: Homo sapiens, 72 hours incubation, normal skin cells
Method: as §3, §2
(§4) Table 7. Cytotoxic Activity of NB1024 Isomers

CCd18co [12] = assay: Crystal violet cell proliferation inhibition assay; type: cell-based; conditions: Homo sapiens, CCD-18Co, 72 hours incubation, normal colon epithelium cells
Method: as §3, §2, §4

HT1080 # 12 = assay: Crystal violet cell proliferation inhibition assay; type: cell-based; conditions: high TS via transgene
Method: as §3, §2, §4

Normal Cells [13] = assay: Crystal violet cell proliferation inhibition assay, mean over normal cells; type: cell-based, human; conditions: mean of the CCD18co and Det551 columns
Method: as §3, §2

Tumor Cells [14] = assay: Crystal violet cell proliferation inhibition assay, mean over tumor cells; type: cell-based
Method: as §3, §2

[15] = Homo sapiens, HT-1080, 120 hours drug exposure

O=c1[nH]c(=O)n([C@H]2C[C@H](O)[C@@H](CO)O2)cc1C=CCl [NB1020, 5-(2-chlorovinyl)-2'-deoxyuridine]
IC30 (HT1080; [15]): 1000 µM | IC50 (Normal Cells [1]; Homo sapiens, CCD-18Co): 1000 µM | mean IC30 over tumor cell lines (Tumor Cells [2]; Homo sapiens, HT-1080): 442 µM | IC30 (MCF7TDX; Homo sapiens): 0.48 µM | IC50 (CCd18co [3]; Homo sapiens, CCD-18Co): 1000 µM | IC30 (H630R10 [4]; Homo sapiens): 326 µM

O=c1[nH]c(=O)n([C@H]2C[C@H](O)[C@@H](COP(=O)(O)O)O2)cc1/C=C/Br [BVdUMP]
amount present in cell lysate, expressed as area of the HPLC peak at 300 nm [5]: 10.9 | amount present in cell lysate, expressed as area of the HPLC peak at 300 nm [6]: < 1 | amount present in cell lysate, expressed as area of the HPLC peak at 300 nm [7]: 63.7

COC(=O)C(C)NP(=O)(OCC1OC(n2cc(C(F)(F)F)c(=O)[nH]c2=O)CC1O)Oc1ccccc1 (centres unmarked) [NB1014]
IC50 (Normal Cells [1]): 139 µM | mean IC30 over tumor cell lines (Tumor Cells [2]): 342 µM | IC50 (Det551 [8]): 239 µM | IC30 (MCF7TDX): 396 µM | IC30 (H630R10 [4]): 287 µM

O=c1ccn(C2CC(O)C(CO)O2)c(=O)[nH]1 (centres unmarked) [NB1026]
IC30 (HT1080; 120 hours drug exposure): 1000 µM | activity (in words, summary of Tables 5 and 6) (Tumor Cells [2]): little detectable activity | IC30 (MCF7TDX): 1000 µM | IC30 (H630R10 [4]): 1000 µM

O=c1[nH]c(=O)n([C@H]2C[C@H](O)[C@@H](CO)O2)cc1/C=C/Br [BVdU, (E)-5-(2-Bromovinyl)-2'-deoxyuridine, reference compound]
IC50 (H630R10 [9]; Homo sapiens): 405 µM | BvdUMP/(BVdUMP + BVdU) x100 [10]: < 4 | IC30 (HT1080; [15]): 719 µM | IC50 (Normal Cells [1]; Homo sapiens, CCD-18Co): 1000 µM | IC50 (Det551 [11]): 625 µM | IC50 (CCd18co [12]): 1000 µM | IC50 (HT1080 # 12; Homo sapiens, HT-1080, 72 hours incubation): 7 µM | mean IC30 over tumor cell lines (Tumor Cells [2]; Homo sapiens, HT-1080): 307 µM | pIC50 (Normal Cells [13]; Homo sapiens, CCD-18Co): 3.09 | IC50 (Tumor Cells [14]; Homo sapiens, HT-1080, mean of the H630R10 and HT1080 # 12 columns (uM)): 206 µM | IC30 (MCF7TDX; Homo sapiens): 0.02 µM | IC50 (CCd18co [3]; Homo sapiens, CCD-18Co): 1000 µM | IC30 (H630R10 [4]; Homo sapiens): 201 µM

COC(=O)[C@H](C)NP(=O)(OC[C@H]1O[C@@H](n2cc(/C=C/Cl)c(=O)[nH]c2=O)C[C@@H]1O)Oc1ccccc1 (some centres unmarked) [NB1013]
IC50 (Normal Cells [1]): 570 µM | mean IC30 over tumor cell lines (Tumor Cells [2]): 59 µM | IC50 (Det551 [8]): 570 µM | IC30 (MCF7TDX): 26 µM | IC30 (H630R10 [4]): 92 µM

5-(2-Bromovinyl)-2'-Deoxyuridine Phenyl N-Methoxy-L-alaninyl Phosphoramidate [NB1011]
IC50 (H630R10 [9]): 130 µM | IC30 (HT1080; 120 hours drug exposure): 182 µM | IC50 (Normal Cells [1]): 406 µM | IC50 (HT1080 # 12; 72 hours incubation): 1.2 µM | mean IC30 over tumor cell lines (Tumor Cells [2]): 88.7 µM | pIC50 (Normal Cells [13]): 3.42 | IC50 (Tumor Cells [14]; mean of the H630R10 and HT1080 # 12 columns (uM)): 65.6 µM | IC50 (Det551 [8]): 398 µM | IC30 (MCF7TDX): 2 µM | IC50 (CCd18co [3]): 414 µM | IC30 (H630R10 [4]): 82 µM

COC(=O)C(C)NP(=O)(OCC1OC(n2ccc(=O)[nH]c2=O)CC1O)Oc1ccccc1 (centres unmarked) [NB1025]
IC30 (HT1080; 120 hours drug exposure): 454 µM | IC50 (Normal Cells [1]): 378 µM | mean IC30 over tumor cell lines (Tumor Cells [2]): 232 µM | activity (in words, summary of Tables 5 and 6) (Tumor Cells [2]): active | IC30 (MCF7TDX): 49 µM | IC50 (CCd18co [3]): 378 µM
